# Source: patent US20180312534A1, “FLUORESCENT ANTICANCER PLATINUM DRUGS” (INVICTUS ONCOLOGY PVT. LTD., priority 2015, published 2018)
# Tested on: A549
# Assay: Cellular uptake of fluorescent compounds (fluorescence microscopy)
# Assay type: cell-based
# Conditions: A549, post 5-hours incubation
# Description: The intracellular localization of molecules was visualized by fluorescence microscopy. Cells were seeded on cover slips to a confluency of 40% and grown for 24 hours in a humidified chamber. Cells were treated with fluorescent compounds and incubated for 2, 5 and 24 hours. Following incubation, cells were washed with PBS, fixed in 4% paraformaldehyde and observed under epifluorescence microscope. Images were recorded in phase contrast and fluorescent channels. Cells treated with vehicle and/or ligand were considered as control and microscopically evaluated.
smiles,measurement,value
NCC(N)C(=O)OCCNc1ccc2cccc3c2c1C(=O)C=C3 (stereo not shown) [Im-02],intracellular localization of fluorescence,punctate dots in the cytoplasm or along cell margins
